Results reported in US20240109864A1, “SUBSTITUTED PYRAZOLYL PIPERIDINE CARBOXYLIC ACIDS” (BAYER AKTIENGESELLSCHAFT, priority 2020, published 2024).
Counter-ions that a name gives are not always drawn.

How the values were obtained:
[1] = target: T1, recombinant guanylate cyclase reporter cell line (Rattus norvegicus, UniProt P20595); assay: Effect on a recombinant guanylate cyclase reporter cell line; format: cell-based; details: in some cases mean values from individual determinations; for MEC: MEC = minimum effective concentration; for EC50: half maximal effective concentration
T1 construct: expressed in transfected cells
T1 sequence (P20595 1-619): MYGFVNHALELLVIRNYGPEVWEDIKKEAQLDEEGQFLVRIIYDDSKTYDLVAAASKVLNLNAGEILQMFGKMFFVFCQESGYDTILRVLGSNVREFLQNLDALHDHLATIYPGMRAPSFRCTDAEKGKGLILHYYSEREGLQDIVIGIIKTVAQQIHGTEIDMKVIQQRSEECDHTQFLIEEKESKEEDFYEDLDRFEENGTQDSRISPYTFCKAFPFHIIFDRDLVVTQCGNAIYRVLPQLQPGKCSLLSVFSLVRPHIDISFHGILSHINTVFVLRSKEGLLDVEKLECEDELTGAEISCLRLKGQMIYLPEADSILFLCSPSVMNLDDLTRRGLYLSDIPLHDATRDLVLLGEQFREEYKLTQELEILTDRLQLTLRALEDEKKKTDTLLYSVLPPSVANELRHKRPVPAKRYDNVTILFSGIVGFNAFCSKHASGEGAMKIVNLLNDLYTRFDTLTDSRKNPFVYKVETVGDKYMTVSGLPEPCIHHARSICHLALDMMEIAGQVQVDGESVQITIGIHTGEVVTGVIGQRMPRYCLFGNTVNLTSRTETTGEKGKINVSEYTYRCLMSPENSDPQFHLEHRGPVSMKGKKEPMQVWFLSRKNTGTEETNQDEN
T1 sequence (P19686 1-690 partner): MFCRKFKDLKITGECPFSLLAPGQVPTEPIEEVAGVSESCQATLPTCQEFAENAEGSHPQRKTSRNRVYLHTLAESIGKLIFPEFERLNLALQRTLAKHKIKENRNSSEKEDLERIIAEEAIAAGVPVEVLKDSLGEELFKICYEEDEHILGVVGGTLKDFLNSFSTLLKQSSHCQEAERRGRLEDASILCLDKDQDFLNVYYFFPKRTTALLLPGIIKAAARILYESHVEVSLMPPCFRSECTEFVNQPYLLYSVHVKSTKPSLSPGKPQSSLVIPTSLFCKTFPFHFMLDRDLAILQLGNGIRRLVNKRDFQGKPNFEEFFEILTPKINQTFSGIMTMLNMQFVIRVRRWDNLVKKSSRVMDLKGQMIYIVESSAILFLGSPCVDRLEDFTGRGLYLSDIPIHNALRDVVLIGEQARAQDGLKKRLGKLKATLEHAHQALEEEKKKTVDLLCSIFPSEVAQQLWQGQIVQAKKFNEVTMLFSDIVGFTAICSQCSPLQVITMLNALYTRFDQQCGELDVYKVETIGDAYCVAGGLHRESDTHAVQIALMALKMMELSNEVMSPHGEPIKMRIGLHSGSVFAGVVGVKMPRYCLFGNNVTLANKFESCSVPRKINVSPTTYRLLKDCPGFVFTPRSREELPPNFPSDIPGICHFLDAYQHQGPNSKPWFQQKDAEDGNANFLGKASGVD
Experimental: The cellular activity of the compounds according to the invention was determined using a recombinant guanylate cyclase reporter cell line, as described in F. Wunder et al., Anal. Biochem. 339, 104-112 (2005).

[2] = Pharmacokinetic parameters following intravenous administration in rats; format: in vivo
Experimental: (§1) The pharmacokinetic parameters of the compounds according to the invention were determined in male Wistar rats and/or in female beagles and/or in cynomolgus monkeys and/or in male CD-1 mice. Intravenous administration in the case of mice and rats was carried out by means of a species-specific plasma/DMSO formulation, and in the case of dogs and monkeys by means of a water/PEG400/ethanol formulation. In all species, oral administration of the dissolved substance was performed via gavage, based on a water/PEG400/ethanol formulation.
An internal standard (which may also be a chemically unrelated substance) was added to the samples of the compounds of the invention, calibration samples and qualifiers, and there followed protein precipitation by means of acetonitrile in excess. […] The supernatant was analysed by LC-MS/MS using C18 reversed-phase columns and variable mobile phase mixtures. The substances were quantified via the peak heights or areas from extracted ion chromatograms of specific selected ion monitoring experiments.
The plasma concentration/time plots determined were used to calculate the pharmacokinetic parameters such as AUC, Cmax, t1/2 (terminal half-life), F (bioavailability), MRT (mean residence time) and CL (clearance), by means of a validated pharmacokinetic calculation program. […]

[3] = Pharmacokinetic parameters following oral administration in rats; format: in vivo
Experimental: as §1
An internal standard (which may also be a chemically unrelated substance) was added to the samples of the compounds of the invention, calibration samples and qualifiers, and there followed protein precipitation by means of acetonitrile in excess. Addition of a buffer solution matched to the LC conditions, and subsequent vortexing, was followed by centrifugation at 1000 g. The supernatant was analysed by LC-MS/MS using C18 reversed-phase columns and variable mobile phase mixtures. The substances were quantified via the peak heights or areas from extracted ion chromatograms of specific selected ion monitoring experiments.
The plasma concentration/time plots determined were used to calculate the pharmacokinetic parameters such as AUC, Cmax, t1/2 (terminal half-life), F (bioavailability), MRT (mean residence time) and CL (clearance), by means of a validated pharmacokinetic calculation program.
Since the substance quantification was performed in plasma, it was necessary to determine the blood/plasma distribution of the substance in order to be able to adjust the pharmacokinetic parameters correspondingly. For this purpose, a defined amount of substance was incubated in K3 EDTA whole blood of the species in question in a rocking roller mixer for 20 min. After centrifugation at 1000 g, the plasma concentration was measured (by means of LC-MS/MS; see above) and determined by calculating the ratio of the Cblood/Cplasma value.

Row | MEC [1] | EC50 [1] | SMILES | also measured
1 | 2.0 nM | – | O=C(O)c1cnn(C2CCCN(c3cc(Cl)ccc3-c3ccc(N4CCN(CC5CC5)CC4)cc3)C2)c1C(F)(F)F (single isomer, unassigned) [Example 7, 1-[1-[5-Chloro-2-[4-[4-(cyclopropylmethyl)piperazin-1-yl]phenyl]phenyl]-3-piperidyl]-5-(trifluoromethyl)pyrazole-4-carboxylic acid hydrochloride] | AUCnorm [2]: 1.37 kg·h/L; bioavailability in comparison to prior art (WO 2012/058132) ([3]; after oral (p.o.) application): lower bioavailability; AUCnorm ([3]; oral administration in rats): 0.52 kg·h/L; F ([3]; oral administration in rats, F = bioavailability): 37.4%
2 | 30.0 nM | 0.058 µM | CCN1CCN(c2ccc(-c3ccc(Cl)cc3N3CCCC(n4ncc(C(=O)O)c4C(F)(F)F)C3)c(C)c2)CC1 (single isomer, unassigned) [Example 73, 1-[1-[5-Chloro-2-[4-(4-ethylpiperazin-1-yl)-2-methyl-phenyl]phenyl]-3-piperidyl]-5-(trifluoromethyl)pyrazole-4-carboxylic acid hydrochloride] | –
3 | – | 0.0105 µM | O=C(O)c1cnn(C2CCCN(c3cc(Cl)ccc3-c3ccc(N4CCN(CC(F)(F)F)CC4)nc3)C2)c1C(F)(F)F (single isomer, unassigned) [Example 74, 1-[1-[5-Chloro-2-[6-[4-(2,2,2-trifluoroethyl)piperazin-1-yl]-3-pyridyl]phenyl]-3-piperidyl]-5-(trifluoromethyl)pyrazole-4-carboxylic acid hydrochloride] | MEC ([1]; hydrochloride): 1.0 nM
4 | 3.0 nM | 0.016 µM | O=C(O)c1cnn(C2CCCN(c3cc(Cl)ccc3-c3ccc(N4CCN(CC(F)(F)F)CC4)nc3)C2)c1C(F)(F)F (single isomer, unassigned) [Example 75, 1-[1-[5-Chloro-2-[6-[4-(2,2,2-trifluoroethyl)piperazin-1-yl]-3-pyridyl]phenyl]-3-piperidyl]-5-(trifluoromethyl)pyrazole-4-carboxylic acid] | –
5 | 1.0 nM | 0.0048 µM | O=C(O)c1cnn(C2CCCN(c3cc(Cl)ccc3-c3ccc(N4CCN(CCC(F)(F)F)CC4)nc3)C2)c1C(F)(F)F (single isomer, unassigned) [Example 76, 1-[1-[5-Chloro-2-[6-[4-(3,3,3-trifluoropropyl)piperazin-1-yl]-3-pyridyl]phenyl]-3-piperidyl]-5-(trifluoromethyl)pyrazole-4-carboxylic acid hydrochloride] | –
6 | 30.0 nM | 0.0825 µM | O=C(O)c1cnn(C2CCCN(c3cc(Cl)ccc3-c3ccc(N4CCN(CC(F)(F)F)CC4)nc3)C2)c1C(F)(F)F (single isomer, unassigned) [Example 77, 1-[1-[5-Chloro-2-[6-[4-(2,2,2-trifluoroethyl)piperazin-1-yl]-3-pyridyl]phenyl]-3-piperidyl]-5-(trifluoromethyl)pyrazole-4-carboxylic acid] | –
7 | 1.0 nM | 0.0132 µM | O=C(O)c1cnn(C2CCCN(c3cc(Cl)ccc3-c3ccc(C4CN(CCC(F)(F)F)C4)cc3)C2)c1C(F)(F)F (single isomer, unassigned) [Example 78, 1-[1-[5-Chloro-2-[4-[1-(3,3,3-trifluoropropyl)azetidin-3-yl]phenyl]phenyl]-3-piperidyl]-5-(trifluoromethyl)pyrazole-4-carboxylic acid hydrochloride] | –
8 | 1.0 nM | 0.0036 µM | O=C(O)c1cnn(C2CCCN(c3cc(Cl)ccc3-c3ccc(C4CC4)nc3)C2)c1C(F)(F)F (single isomer, unassigned) [Example 79, 1-[1-[5-Chloro-2-(6-cyclopropyl-3-pyridyl)phenyl]-3-piperidyl]-5-(trifluoromethyl)pyrazole-4-carboxylic acid] | –
9 | 10.0 nM | 0.0855 µM | O=C(O)c1cnn(C2CCCN(c3cc(Cl)ccc3-c3ccc4c(c3)CCN(CC(F)(F)F)C4)C2)c1C(F)(F)F (single isomer, unassigned) [Example 80, 1-[1-[5-Chloro-2-[2-(2,2,2-trifluoroethyl)-3,4-dihydro-1H-isoquinolin-6-yl]phenyl]-3-piperidyl]-5-(trifluoromethyl)pyrazole-4-carboxylic acid] | –
10 | 30.0 nM | 0.043 µM | CC(C)CN1CCc2cc(-c3ccc(Cl)cc3N3CCCC(n4ncc(C(=O)O)c4C(F)(F)F)C3)ccc2C1 (single isomer, unassigned) [Example 81, 1-[1-[5-Chloro-2-(2-isobutyl-3,4-dihydro-1H-isoquinolin-6-yl)phenyl]-3-piperidyl]-5-(trifluoromethyl)pyrazole-4-carboxylic acid hydrochloride] | –
11 | 0.3 nM | 0.0039 µM | CCC(=O)N1CCC(c2ccc(-c3ccc(Cl)cc3N3CCCC(n4ncc(C(=O)O)c4C(F)(F)F)C3)cc2)CC1 (single isomer, unassigned) [Example 82, 1-[1-[5-Chloro-2-[4-(1-propanoyl-4-piperidyl)phenyl]phenyl]-3-piperidyl]-5-(trifluoromethyl)pyrazole-4-carboxylic acid hydrochloride] | –
12 | 0.3 nM | 0.0039 µM | CCC(=O)N1CCC(c2ccc(-c3ccc(Cl)cc3N3CCCC(n4ncc(C(=O)O)c4C(F)(F)F)C3)cc2)CC1 (single isomer, unassigned) [Example 83, 1-[1-[5-Chloro-2-[4-(1-propanoyl-4-piperidyl)phenyl]phenyl]-3-piperidyl]-5-(trifluoromethyl)pyrazole-4-carboxylic acid hydrochloride] | –
13 | – | 0.0025 µM | O=C(O)c1cnn(C2CCCN(c3cc(Cl)ccc3-c3ccc(C4CCN(C(=O)C5CC5)CC4)cc3)C2)c1C(F)(F)F (single isomer, unassigned) [Example 84, 1-[1-[5-Chloro-2-[4-[1-(cyclopropanecarbonyl)-4-piperidyl]phenyl]phenyl]-3-piperidyl]-5-(trifluoromethyl)pyrazole-4-carboxylic acid hydrochloride] | MEC ([1]; hydrochloride): 0.3 nM
14 | – | 0.0011 µM | O=C(O)c1cnn(C2CCCN(c3cc(Cl)ccc3-c3ccc(C4CCN(C(=O)C5CC5)CC4)cc3)C2)c1C(F)(F)F (single isomer, unassigned) [Example 85, 1-[1-[5-Chloro-2-[4-[1-(cyclopropanecarbonyl)-4-piperidyl]phenyl]phenyl]-3-piperidyl]-5-(trifluoromethyl)pyrazole-4-carboxylic acid hydrochloride] | MEC ([1]; hydrochloride): <0.3 nM
